Measured values published in ChEMBL document CHEMBL5291721, “A preclinical secondary pharmacology resource illuminates target-adverse drug reaction associations of marketed drugs” (Nat Commun, 2023).

Experiments:
[1] = target: T1, 5-hydroxytryptamine receptor 1A (Homo sapiens, UniProt P08908); assay type: functional, cell-based
T1 sequence (P08908 whole entry): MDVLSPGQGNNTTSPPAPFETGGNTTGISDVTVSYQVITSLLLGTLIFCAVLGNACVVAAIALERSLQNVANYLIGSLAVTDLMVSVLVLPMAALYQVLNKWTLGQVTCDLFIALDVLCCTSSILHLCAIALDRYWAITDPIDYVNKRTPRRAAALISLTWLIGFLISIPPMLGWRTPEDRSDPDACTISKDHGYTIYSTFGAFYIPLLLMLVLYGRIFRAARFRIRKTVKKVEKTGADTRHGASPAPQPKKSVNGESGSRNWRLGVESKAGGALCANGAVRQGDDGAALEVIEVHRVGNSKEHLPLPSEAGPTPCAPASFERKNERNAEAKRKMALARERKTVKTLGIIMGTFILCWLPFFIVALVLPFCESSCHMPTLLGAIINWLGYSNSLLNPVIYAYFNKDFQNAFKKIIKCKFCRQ

Motilin receptor = Motilin receptor (Homo sapiens, UniProt O43193)
Sequence of Motilin receptor (O43193 whole entry): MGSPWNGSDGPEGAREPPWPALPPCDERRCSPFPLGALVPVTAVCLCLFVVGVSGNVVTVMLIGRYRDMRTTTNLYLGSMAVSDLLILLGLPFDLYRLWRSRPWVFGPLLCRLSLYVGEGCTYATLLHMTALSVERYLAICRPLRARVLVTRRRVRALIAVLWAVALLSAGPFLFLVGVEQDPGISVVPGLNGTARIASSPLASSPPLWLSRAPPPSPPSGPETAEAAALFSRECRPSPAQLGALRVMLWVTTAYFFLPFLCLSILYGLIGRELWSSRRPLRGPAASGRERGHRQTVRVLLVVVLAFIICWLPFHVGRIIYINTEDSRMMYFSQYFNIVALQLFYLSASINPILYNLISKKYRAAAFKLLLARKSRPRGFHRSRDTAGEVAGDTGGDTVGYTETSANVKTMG

[2] = target: Gamma-aminobutyric acid receptor subunit alpha-1 (Rattus norvegicus, UniProt P62813)
Sequence of Gamma-aminobutyric acid receptor subunit alpha-1 (P62813 whole entry): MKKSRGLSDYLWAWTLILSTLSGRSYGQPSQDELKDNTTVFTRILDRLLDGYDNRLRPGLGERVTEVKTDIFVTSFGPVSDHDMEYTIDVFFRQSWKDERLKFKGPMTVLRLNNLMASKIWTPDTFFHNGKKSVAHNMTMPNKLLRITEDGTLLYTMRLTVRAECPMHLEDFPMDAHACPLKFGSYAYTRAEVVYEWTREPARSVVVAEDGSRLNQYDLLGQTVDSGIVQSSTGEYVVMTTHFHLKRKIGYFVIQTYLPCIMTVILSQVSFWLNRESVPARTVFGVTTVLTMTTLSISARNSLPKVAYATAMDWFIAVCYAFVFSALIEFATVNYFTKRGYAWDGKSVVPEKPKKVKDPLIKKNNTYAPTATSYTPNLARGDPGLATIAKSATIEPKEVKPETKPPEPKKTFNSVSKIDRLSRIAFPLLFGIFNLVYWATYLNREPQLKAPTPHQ

Histamine H1 receptor = Histamine H1 receptor (Homo sapiens, UniProt P35367)
Sequence of Histamine H1 receptor (P35367 whole entry): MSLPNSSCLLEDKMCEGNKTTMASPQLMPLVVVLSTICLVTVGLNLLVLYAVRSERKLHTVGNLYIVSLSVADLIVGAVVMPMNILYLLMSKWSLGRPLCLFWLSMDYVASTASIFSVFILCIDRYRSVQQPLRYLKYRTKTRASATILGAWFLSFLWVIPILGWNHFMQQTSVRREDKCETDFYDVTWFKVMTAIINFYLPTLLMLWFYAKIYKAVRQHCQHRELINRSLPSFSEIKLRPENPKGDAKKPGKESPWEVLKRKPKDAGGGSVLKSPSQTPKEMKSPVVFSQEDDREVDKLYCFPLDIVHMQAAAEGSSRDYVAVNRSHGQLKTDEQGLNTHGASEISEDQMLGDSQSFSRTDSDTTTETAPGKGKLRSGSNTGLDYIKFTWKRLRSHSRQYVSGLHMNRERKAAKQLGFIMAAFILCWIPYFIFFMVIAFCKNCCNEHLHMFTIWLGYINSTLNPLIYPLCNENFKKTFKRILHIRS

Estrogen receptor = target: T2, Estrogen receptor (Homo sapiens, UniProt P03372)
T2 sequence (P03372 whole entry): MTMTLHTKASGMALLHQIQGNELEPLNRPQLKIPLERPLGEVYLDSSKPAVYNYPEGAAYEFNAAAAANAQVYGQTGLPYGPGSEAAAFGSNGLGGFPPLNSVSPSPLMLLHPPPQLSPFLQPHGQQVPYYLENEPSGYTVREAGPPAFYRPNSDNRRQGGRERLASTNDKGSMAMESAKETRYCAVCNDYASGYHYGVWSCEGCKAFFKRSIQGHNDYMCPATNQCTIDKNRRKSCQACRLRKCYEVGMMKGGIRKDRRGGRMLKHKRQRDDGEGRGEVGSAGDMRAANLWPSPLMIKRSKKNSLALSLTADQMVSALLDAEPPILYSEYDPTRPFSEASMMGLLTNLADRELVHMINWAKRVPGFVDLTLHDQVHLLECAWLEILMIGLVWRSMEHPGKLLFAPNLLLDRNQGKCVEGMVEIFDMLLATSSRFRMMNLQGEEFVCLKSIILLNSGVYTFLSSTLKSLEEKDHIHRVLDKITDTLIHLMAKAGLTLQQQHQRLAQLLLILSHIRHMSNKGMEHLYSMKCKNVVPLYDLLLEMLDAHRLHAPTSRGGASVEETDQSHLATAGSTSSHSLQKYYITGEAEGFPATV

Adenosine receptor A3 = target: T3, Adenosine receptor A3 (Homo sapiens, UniProt P0DMS8)
T3 sequence (P0DMS8 whole entry): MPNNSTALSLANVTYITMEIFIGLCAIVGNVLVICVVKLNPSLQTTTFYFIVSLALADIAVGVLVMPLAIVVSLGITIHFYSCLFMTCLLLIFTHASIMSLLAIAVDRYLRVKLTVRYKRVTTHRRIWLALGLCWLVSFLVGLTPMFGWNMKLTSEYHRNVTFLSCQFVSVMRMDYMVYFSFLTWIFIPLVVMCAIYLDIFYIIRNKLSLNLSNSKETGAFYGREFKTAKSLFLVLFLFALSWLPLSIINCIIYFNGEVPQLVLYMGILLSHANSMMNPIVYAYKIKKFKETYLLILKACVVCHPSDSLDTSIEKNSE

[3] = target: Glutamate receptor ionotropic, NMDA 1 (Rattus norvegicus, UniProt P35439)
Progesterone receptor = target: T4, Progesterone receptor (Homo sapiens, UniProt P06401); assay type: functional
T4 sequence (P06401 whole entry): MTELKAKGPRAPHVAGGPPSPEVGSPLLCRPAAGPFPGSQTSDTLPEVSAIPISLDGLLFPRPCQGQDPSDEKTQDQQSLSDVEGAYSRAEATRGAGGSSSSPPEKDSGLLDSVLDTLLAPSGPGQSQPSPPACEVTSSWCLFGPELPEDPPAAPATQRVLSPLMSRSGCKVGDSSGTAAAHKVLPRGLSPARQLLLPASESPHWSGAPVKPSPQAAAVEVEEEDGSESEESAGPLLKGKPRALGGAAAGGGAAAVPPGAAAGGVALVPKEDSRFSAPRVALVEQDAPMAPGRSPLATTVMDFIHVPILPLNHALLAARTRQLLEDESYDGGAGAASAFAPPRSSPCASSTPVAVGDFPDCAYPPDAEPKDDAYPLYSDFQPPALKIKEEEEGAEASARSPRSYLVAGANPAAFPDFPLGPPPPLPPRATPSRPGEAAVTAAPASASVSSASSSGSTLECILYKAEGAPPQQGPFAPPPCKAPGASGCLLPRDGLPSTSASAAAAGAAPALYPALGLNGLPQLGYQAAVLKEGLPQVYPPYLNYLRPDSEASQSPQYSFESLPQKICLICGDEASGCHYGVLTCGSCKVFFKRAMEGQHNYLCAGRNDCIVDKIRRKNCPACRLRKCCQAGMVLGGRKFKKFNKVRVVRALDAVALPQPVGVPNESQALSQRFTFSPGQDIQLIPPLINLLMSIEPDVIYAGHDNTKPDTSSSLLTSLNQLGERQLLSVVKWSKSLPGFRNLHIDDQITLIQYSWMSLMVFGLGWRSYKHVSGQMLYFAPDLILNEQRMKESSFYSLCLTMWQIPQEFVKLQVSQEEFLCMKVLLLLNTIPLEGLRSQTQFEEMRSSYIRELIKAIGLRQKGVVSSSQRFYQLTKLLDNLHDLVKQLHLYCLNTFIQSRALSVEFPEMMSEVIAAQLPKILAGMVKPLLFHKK

Vasopressin V1a receptor = Vasopressin V1a receptor (Homo sapiens, UniProt P37288)
Sequence of Vasopressin V1a receptor (P37288 whole entry): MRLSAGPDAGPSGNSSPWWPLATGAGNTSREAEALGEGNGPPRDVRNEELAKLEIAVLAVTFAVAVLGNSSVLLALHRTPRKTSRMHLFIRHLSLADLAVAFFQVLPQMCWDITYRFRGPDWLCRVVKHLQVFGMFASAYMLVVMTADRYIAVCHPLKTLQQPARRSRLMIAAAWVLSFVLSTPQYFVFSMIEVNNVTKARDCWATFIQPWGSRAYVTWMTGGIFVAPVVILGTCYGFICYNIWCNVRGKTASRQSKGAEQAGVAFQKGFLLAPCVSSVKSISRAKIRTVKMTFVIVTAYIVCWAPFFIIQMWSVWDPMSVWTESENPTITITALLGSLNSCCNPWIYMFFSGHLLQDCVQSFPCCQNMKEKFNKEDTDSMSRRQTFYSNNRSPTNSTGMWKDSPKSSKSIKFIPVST

Measured: AC50
Note: assay procedure not described here.

COC(=O)C1=C(C)NC(C)=C(C(=O)OC(C)(C)CN(C)CCC(c2ccccc2)c2ccccc2)C1c1cccc([N+](=O)[O-])c1 (configuration not stated) [LERCANIDIPINE]
8.8 µM: Adenosine receptor A3
6.4 µM: Histamine H1 receptor
12.6 µM: Motilin receptor
> 30 µM: all other assays above

CN1C(=O)C(O)N=C(c2ccccc2Cl)c2cc(Cl)ccc21 (configuration not stated) [LORMETAZEPAM]
> 30 µM: all assays above

C[C@H](N)[C@H](O)c1cccc(O)c1 [METARAMINOL]
> 10 µM: all assays above

CCC1(CC)C(=O)NCC(C)C1=O (configuration not stated) [METHYPRYLON]
> 30 µM: all assays above

O=C(O)[C@H](CC(=O)N1C[C@H]2CCCC[C@H]2C1)Cc1ccccc1 [MITIGLINIDE]
> 10 µM: all assays above

O=C(O)C[C@H](O)C[C@H](O)/C=C/c1c(C2CC2)nc2ccccc2c1-c1ccc(F)cc1 [PITAVASTATIN]
> 30 µM: Histamine H1 receptor | Adenosine receptor A3 | Progesterone receptor
> 10 µM: all other assays above

Clc1ccc(CCCOCCCN2CCCCC2)cc1 [PITOLISANT]
11 µM: Histamine H1 receptor
> 30 µM: all other assays above

COC(=O)[C@H]1[C@H]2C[C@@H]3c4[nH]c5cc(OC)ccc5c4CCN3C[C@H]2C[C@@H](OC(=O)/C=C/c2cc(OC)c(OC)c(OC)c2)[C@@H]1OC [RESCINNAMINE]
> 30 µM: Adenosine receptor A3
> 10 µM: all other assays above

Cc1ccc(-n2nccn2)c(C(=O)N2CCN(c3nc4cc(Cl)ccc4o3)CC[C@H]2C)c1 [SUVOREXANT]
> 10 µM: Adenosine receptor A3
> 30 µM: all other assays above

C=CCC1(C(C)CC)C(=O)NC(=O)NC1=O (configuration not stated) [TALBUTAL]
> 10 µM: all assays above

COc1cc2c(N)nc(N3CCN(C(=O)OCC(C)(C)O)CC3)nc2c(OC)c1OC [TRIMAZOSIN]
22 µM: [1]
> 30 µM: all other assays above

C=CCN1CCCC1CNC(=O)c1cc(S(N)(=O)=O)cc(OC)c1OC (configuration not stated) [VERALIPRIDE]
3.6 µM: [1]
> 30 µM: all other assays above

C[C@H](CSC(=O)c1ccccc1)C(=O)N1C[C@@H](Sc2ccccc2)C[C@H]1C(=O)O [ZOFENOPRIL]
> 10 µM: all assays above
